Measurements reported in PubChem BioAssay (NCI).
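How tested: cells in 96-well plates exposed to compound for 48 hours at five concentrations. Abbreviation: GI50, concentration required for 50% inhibition of growth. The concentration for full growth arrest is given as TGI.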

Assays:
Assay in all cases: inhibition of tumour cell growth, NCI panel, 48 h
786-0 renal = test system: 786-0 renal
A498 renal = test system: A498 renal
A549 NSCLC = test system: A549 NSCLC
ACHN renal = test system: ACHN renal
BT-549 breast = test system: BT-549 breast
CAKI-1 renal = test system: CAKI-1 renal
CCRF-CEM leukemia = test system: CCRF-CEM leukemia
COLO 205 colon = test system: COLO 205 colon
DU-145 prostate = test system: DU-145 prostate
EKVX NSCLC = test system: EKVX NSCLC
HCC-2998 colon = test system: HCC-2998 colon
HCT-116 colon = test system: HCT-116 colon
HCT-15 colon = test system: HCT-15 colon
HL-60(TB) leukemia = test system: HL-60(TB) leukemia
HOP-62 NSCLC = test system: HOP-62 NSCLC
HOP-92 NSCLC = test system: HOP-92 NSCLC
HS 578T breast = test system: HS 578T breast
HT29 colon = test system: HT29 colon
IGROV1 ovarian = test system: IGROV1 ovarian
K-562 leukemia = test system: K-562 leukemia
KM12 colon = test system: KM12 colon
LOX IMVI melanoma = test system: LOX IMVI melanoma
M14 melanoma = test system: M14 melanoma
MALME-3M melanoma = test system: MALME-3M melanoma
MCF7 breast = test system: MCF7 breast
MDA-MB-231 breast = test system: MDA-MB-231 breast
MDA-MB-435 = test system: MDA-MB-435
MDA-MB-468 breast = test system: MDA-MB-468 breast
MOLT-4 leukemia = test system: MOLT-4 leukemia
NCI-H226 lung = test system: NCI-H226 lung
NCI-H23 lung = test system: NCI-H23 lung
NCI-H460 lung = test system: NCI-H460 lung
NCI-H522 lung = test system: NCI-H522 lung
NCI/ADR-RES ovarian = test system: NCI/ADR-RES ovarian
OVCAR-3 ovarian = test system: OVCAR-3 ovarian
OVCAR-4 ovarian = test system: OVCAR-4 ovarian
OVCAR-5 ovarian = test system: OVCAR-5 ovarian
OVCAR-8 ovarian = test system: OVCAR-8 ovarian
PC-3 prostate = test system: PC-3 prostate
RPMI-8226 leukemia = test system: RPMI-8226 leukemia
RXF 393 renal = test system: RXF 393 renal
SF-268 CNS = test system: SF-268 CNS
SF-295 CNS = test system: SF-295 CNS
SF-539 CNS = test system: SF-539 CNS
SK-MEL-2 melanoma = test system: SK-MEL-2 melanoma
SK-MEL-28 melanoma = test system: SK-MEL-28 melanoma
SK-MEL-5 melanoma = test system: SK-MEL-5 melanoma
SK-OV-3 ovarian = test system: SK-OV-3 ovarian
SN12C renal = test system: SN12C renal
SNB-19 CNS = test system: SNB-19 CNS
SNB-75 CNS = test system: SNB-75 CNS
SR leukemia = test system: SR leukemia
SW-620 colon = test system: SW-620 colon
T-47D breast = test system: T-47D breast
TK-10 renal = test system: TK-10 renal
U251 CNS = test system: U251 CNS
UACC-257 melanoma = test system: UACC-257 melanoma
UACC-62 melanoma = test system: UACC-62 melanoma
UO-31 renal = test system: UO-31 renal

## Cc1cc(N=C2NC(=O)/C(=C/c3cc(C(C)(C)C)c(O)c(C(C)(C)C)c3)S2)n[nH]1
786-0 renal
  GI50: 3.81 µM
  TGI: 15.7 µM
A498 renal
  GI50: 1.49 µM
  TGI: 11.1 µM
A549 NSCLC
  GI50: 2.61 µM
  TGI: 18.3 µM
ACHN renal
  GI50: 3.25 µM
  TGI: 14.4 µM
BT-549 breast
  GI50: 2.63 µM
  TGI: 12.2 µM
CAKI-1 renal
  GI50: 2.71 µM
  TGI: 19.1 µM
CCRF-CEM leukemia
  GI50: 1.9 µM
  TGI: 14.9 µM
COLO 205 colon
  GI50: 4.41 µM
  TGI: 18.9 µM
DU-145 prostate
  GI50: 4.87 µM
  TGI: > 100 µM
EKVX NSCLC
  GI50: 1.9 µM
  TGI: 10.8 µM
HCC-2998 colon
  GI50: 4.22 µM
  TGI: 16.4 µM
HCT-116 colon
  GI50: 1.88 µM
  TGI: 12.8 µM
HCT-15 colon
  GI50: 1.5 µM
  TGI: 13.2 µM
HL-60(TB) leukemia
  GI50: 4.27 µM
  TGI: 23.8 µM
HOP-62 NSCLC
  GI50: 3.67 µM
  TGI: 21.1 µM
HOP-92 NSCLC
  GI50: 1.87 µM
  TGI: 14.7 µM
HS 578T breast
  GI50: 1.98 µM
  TGI: 13.2 µM
HT29 colon
  GI50: 4.79 µM
  TGI: 25 µM
IGROV1 ovarian
  GI50: 2.47 µM
  TGI: 16.8 µM
K-562 leukemia
  GI50: 2.47 µM
  TGI: > 100 µM
KM12 colon
  GI50: 4.28 µM
  TGI: 18 µM
LOX IMVI melanoma
  GI50: 2.29 µM
  TGI: 14.5 µM
M14 melanoma
  GI50: 4.58 µM
  TGI: 19.2 µM
MALME-3M melanoma
  GI50: 2.7 µM
  TGI: 14.2 µM
MCF7 breast
  GI50: 1.93 µM
  TGI: 12.2 µM
MDA-MB-231 breast
  GI50: 5.7 µM
  TGI: 20 µM
MDA-MB-435
  GI50: 4.04 µM
  TGI: 16.4 µM
MDA-MB-468 breast
  GI50: 2.55 µM
  TGI: 13.2 µM
MOLT-4 leukemia
  GI50: 2.39 µM
  TGI: 14 µM
NCI-H226 lung
  GI50: 1.89 µM
  TGI: 15.1 µM
NCI-H23 lung
  GI50: 2.45 µM
  TGI: 13.3 µM
NCI-H460 lung
  GI50: 0.755 µM
  TGI: 10.5 µM
NCI-H522 lung
  GI50: 5.35 µM
  TGI: 20.5 µM
NCI/ADR-RES ovarian
  GI50: 1.35 µM
  TGI: 14.3 µM
OVCAR-3 ovarian
  GI50: 3.68 µM
  TGI: 18.1 µM
OVCAR-4 ovarian
  GI50: 3.09 µM
  TGI: 17.7 µM
OVCAR-5 ovarian
  GI50: 5.61 µM
  TGI: 19.4 µM
OVCAR-8 ovarian
  GI50: 3.69 µM
  TGI: 19.6 µM
PC-3 prostate
  GI50: 1.78 µM
  TGI: 22.3 µM
RPMI-8226 leukemia
  GI50: 2.43 µM
  TGI: 13.3 µM
RXF 393 renal
  GI50: 2.19 µM
  TGI: 11.8 µM
SF-268 CNS
  GI50: 4.69 µM
  TGI: 24.2 µM
SF-295 CNS
  GI50: 1.07 µM
  TGI: 10.8 µM
SF-539 CNS
  GI50: 4.6 µM
  TGI: 16.4 µM
SK-MEL-2 melanoma
  GI50: 4.35 µM
  TGI: 18.8 µM
SK-MEL-28 melanoma
  GI50: 4.67 µM
  TGI: 17.1 µM
SK-MEL-5 melanoma
  GI50: 1.63 µM
  TGI: 3.66 µM
SK-OV-3 ovarian
  GI50: 5.58 µM
  TGI: 21.1 µM
SN12C renal
  GI50: 2.7 µM
  TGI: 14.8 µM
SNB-19 CNS
  GI50: 3.26 µM
  TGI: 15.8 µM
SNB-75 CNS
  GI50: 4.6 µM
  TGI: 20.1 µM
SR leukemia
  GI50: 3.33 µM
  TGI: 40.6 µM
SW-620 colon
  GI50: 3.71 µM
  TGI: 14.2 µM
T-47D breast
  GI50: 2.41 µM
  TGI: 24.9 µM
TK-10 renal
  GI50: 6.19 µM
  TGI: 23.8 µM
U251 CNS
  GI50: 2.15 µM
  TGI: 13.6 µM
UACC-257 melanoma
  GI50: 4.63 µM
  TGI: 19 µM
UACC-62 melanoma
  GI50: 3.58 µM
  TGI: 15.3 µM
UO-31 renal
  GI50: 2.1 µM
  TGI: 14.5 µM
